Data as given in ChEMBL document CHEMBL1157187, “Chemical synthesis of 2beta-amino-5alpha-androstane-3alpha,17beta-diol N-derivatives and their antiproliferative effect on HL-60 human leukemia cells” (Bioorg Med Chem, 2008).

What was measured:
HL-60 [1] = experiment: Growth inhibition of human HL60 cells at 1 uM after 3 days; format: functional; conditions: HL-60, 72 h
HL-60 [2] = experiment: Growth inhibition of human HL60 cells at 10 uM after 3 days; format: functional; conditions: HL-60, 72 h
HL-60 [3] = experiment: Growth inhibition of human HL60 cells after 3 days; format: functional, cell-based; conditions: HL-60, 72 h
HL-60 [4] = experiment: Increase in CD11b expression in human HL60 cells; format: functional
HL-60 [5] = experiment: Increase in CD11b/CD14 double expression in human HL60 cells; format: functional

Structure (SMILES)	inhibition at 1 µM (HL-60 [1]) [%]	inhibition at 10 µM (HL-60 [2]) [%]	IC50 (HL-60 [3]) [µM]	Activity (HL-60 [4]) [%]	Activity (HL-60 [5]) [%]
CCCCCCCCN[C@H]1C[C@@]2(C)[C@@H](CC[C@@H]3[C@@H]2CC[C@]2(C)[C@@H](O)CC[C@@H]32)C[C@@H]1O	0	99.2	6.4	29	10
C[C@]12C[C@H](NCCC(c3ccccc3)c3ccccc3)[C@@H](O)C[C@@H]1CC[C@@H]1[C@@H]2CC[C@]2(C)[C@@H](O)CC[C@@H]12	12.9	95.2	3.1	58	39
CCCCCCCCCN1CCN([C@H]2C[C@@]3(C)[C@@H](CC[C@@H]4[C@@H]3CC[C@]3(C)[C@@H](O)CC[C@@H]43)C[C@@H]2O)CC1	9.1	99.8	4.2	55	32
CCCCCCCCCCCCN[C@H]1C[C@@]2(C)[C@@H](CC[C@@H]3[C@@H]2CC[C@]2(C)[C@@H](O)CC[C@@H]32)C[C@@H]1O	0	92	–	–	–
C[C@]12C[C@H](N3CCCC3)[C@@H](O)C[C@@H]1CC[C@@H]1[C@@H]2CC[C@]2(C)[C@@H](O)CC[C@@H]12	0	9.9	–	–	–
C[C@]12C[C@H](N3CCC(N4CCCCC4)CC3)[C@@H](O)C[C@@H]1CC[C@@H]1[C@@H]2CC[C@]2(C)[C@@H](O)CC[C@@H]12	0	77.8	–	–	–
CCCCN1CCN([C@H]2C[C@@]3(C)[C@@H](CC[C@@H]4[C@@H]3CC[C@]3(C)[C@@H](O)CC[C@@H]43)C[C@@H]2O)CC1	0	7.6	–	–	–
CCOCCCN[C@H]1C[C@@]2(C)[C@@H](CC[C@@H]3[C@@H]2CC[C@]2(C)[C@@H](O)CC[C@@H]32)C[C@@H]1O	0	10.8	–	–	–
C[C@]12C[C@H](N3CCC(Cc4ccccc4)CC3)[C@@H](O)C[C@@H]1CC[C@@H]1[C@@H]2CC[C@]2(C)[C@@H](O)CC[C@@H]12	9.9	57.9	–	–	–
CCCN1CCN([C@H]2C[C@@]3(C)[C@@H](CC[C@@H]4[C@@H]3CC[C@]3(C)[C@@H](O)CC[C@@H]43)C[C@@H]2O)CC1	0	0	–	–	–
C[C@]12C[C@H](N3CCN(CC4CCCCC4)CC3)[C@@H](O)C[C@@H]1CC[C@@H]1[C@@H]2CC[C@]2(C)[C@@H](O)CC[C@@H]12	0	4	–	–	–
C[C@]12C[C@H](N3CCN(c4ccc(F)cc4)CC3)[C@@H](O)C[C@@H]1CC[C@@H]1[C@@H]2CC[C@]2(C)[C@@H](O)CC[C@@H]12	0	10.1	–	–	–
CCC(C)(C)N[C@H]1C[C@@]2(C)[C@@H](CC[C@@H]3[C@@H]2CC[C@]2(C)[C@@H](O)CC[C@@H]32)C[C@@H]1O	0	1.8	–	–	–
CC(C)N[C@H]1C[C@@]2(C)[C@@H](CC[C@@H]3[C@@H]2CC[C@]2(C)[C@@H](O)CC[C@@H]32)C[C@@H]1O	0	0	–	–	–
COc1cccc2c1C(=O)c1c(O)c3c(c(O)c1C2=O)C[C@@](O)(C(=O)CO)C[C@@H]3O[C@H]1C[C@H](N)[C@H](O)[C@H](C)O1 [DOXORUBICIN]	91.8	94.6	0.1	–	–
C[C@]12C[C@H](NCCCc3ccccc3)[C@@H](O)C[C@@H]1CC[C@@H]1[C@@H]2CC[C@]2(C)[C@@H](O)CC[C@@H]12	0.9	37.6	–	–	–
CC(C)(C)CN[C@H]1C[C@@]2(C)[C@@H](CC[C@@H]3[C@@H]2CC[C@]2(C)[C@@H](O)CC[C@@H]32)C[C@@H]1O	0	3.3	–	–	–
C[C@]12C[C@H](NCCc3ccccc3)[C@@H](O)C[C@@H]1CC[C@@H]1[C@@H]2CC[C@]2(C)[C@@H](O)CC[C@@H]12	9.5	42.8	–	–	–
CC(C)CC(=O)N1CCN([C@H]2C[C@@]3(C)[C@@H](CC[C@@H]4[C@@H]3CC[C@]3(C)[C@@H](O)CC[C@@H]43)C[C@@H]2O)CC1	0	5.5	–	–	–
